The values that follow come from patent US12157755B2, “CD73 inhibitor, preparation method therefor and application thereof” (Abbisko Therapeutics Co., Ltd., priority 2019, dated 2024).

The target of one experiment is T1, CD73 (Homo sapiens, UniProt P21589).
T1 construct: purchased R&D systems 5795-EN-010
T1 sequence (P21589 27-547 limits assumed): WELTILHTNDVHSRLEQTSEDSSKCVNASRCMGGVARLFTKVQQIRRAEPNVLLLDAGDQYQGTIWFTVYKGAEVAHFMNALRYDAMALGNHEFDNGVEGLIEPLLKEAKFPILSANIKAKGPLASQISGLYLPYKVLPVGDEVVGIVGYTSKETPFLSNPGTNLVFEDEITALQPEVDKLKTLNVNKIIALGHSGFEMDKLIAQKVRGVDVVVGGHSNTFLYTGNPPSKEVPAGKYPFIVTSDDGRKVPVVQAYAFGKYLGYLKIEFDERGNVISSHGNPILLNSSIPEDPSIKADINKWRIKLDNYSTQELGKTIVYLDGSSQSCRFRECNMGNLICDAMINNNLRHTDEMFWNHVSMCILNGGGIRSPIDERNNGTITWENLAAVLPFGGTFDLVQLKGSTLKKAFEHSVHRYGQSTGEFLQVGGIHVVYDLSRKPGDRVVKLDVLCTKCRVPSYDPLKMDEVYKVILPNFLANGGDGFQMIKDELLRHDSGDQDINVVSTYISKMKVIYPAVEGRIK
Put plainly: In vitro enzymatic activity against CD73 (malachite green test using soluble CD73). It is filed as biochemical. To be noted: soluble CD73 36 ng/mL, 50 μM AMP, 30 minutes at 25° C. On the procedure:
The malachite green test using soluble CD73, which is synthesized in vitro was used in the present invention to determine the characteristics of inhibitory activity of the compounds against CD73. The specific experimental procedures were as following:
1. The enzyme reaction in this experiment was carried out in 384-well plates, and CD73 (R&D systems #5795-EN-010) at a concentration of 36 ng/mL, the compounds at different concentrations and 50 μM AMP were incubated for 30 minutes at 25° C. in a 40 uL reaction system (consisting of 25 mM Tris pH 7.5, 5 mM MgCl2, and 0.005% Tween-20);
2. Then, 10 μL of malachite green solution (Sigma) was added to each well to terminate the reaction;
3. The concentration of resulting inorganic phosphate was determined according to the instructions of the reagent manufacturer;
4. The enzymatic activity of CD73 was calculated based on the concentration of the product, and then IC50 values were determined by non-linear regression analysis of the inhibition percentage of the compounds of the present invention at different concentrations.

The target in experiment [1] is T2, CD73 enzymatic activity expressed on the cell surface of MDA-MB-231 cells (Homo sapiens, UniProt P21589).
T2 construct: Human breast cancer cells MDA-MB-231 that endogenously express CD73 were used; host or cells: MDA-MB-231
T2 sequence (P21589 27-549): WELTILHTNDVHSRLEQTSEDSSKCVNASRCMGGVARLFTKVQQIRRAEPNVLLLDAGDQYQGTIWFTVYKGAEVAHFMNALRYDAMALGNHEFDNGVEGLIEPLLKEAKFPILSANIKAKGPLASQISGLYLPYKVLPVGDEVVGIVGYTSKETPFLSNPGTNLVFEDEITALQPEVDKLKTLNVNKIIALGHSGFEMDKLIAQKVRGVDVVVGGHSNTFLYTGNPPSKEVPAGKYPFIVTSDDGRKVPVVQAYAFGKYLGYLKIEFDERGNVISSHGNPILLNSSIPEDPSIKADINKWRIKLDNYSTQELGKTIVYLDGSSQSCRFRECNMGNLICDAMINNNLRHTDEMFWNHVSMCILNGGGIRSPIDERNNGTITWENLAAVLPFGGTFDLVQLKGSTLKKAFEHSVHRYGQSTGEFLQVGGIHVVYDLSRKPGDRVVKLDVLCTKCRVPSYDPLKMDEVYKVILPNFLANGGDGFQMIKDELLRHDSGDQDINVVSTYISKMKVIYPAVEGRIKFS
In words: Inhibition of CD73 enzymatic activity on the cell surface (Cell Titer Glo (CTG) experiment), MDA-MB-231 cells. The experiment is classed as cell-based. Particulars: MDA-MB-231 cells endogenously expressing CD73, AMP, 37° C. for 2 hours, CTG readout; read-out: Cellular activity IC50. As for the experimental part:
Human breast cancer cells MDA-MB-231 that endogenously express CD73 were used in the present invention to evaluate the inhibition of the compound against the CD73 enzymatic activity expressed on the cell surface. The cells used were from the Cell Bank of the Chinese Academy of Sciences. The specific experimental procedures were as follows:
1. Before the test, MDA-MB231 cells were seeded to a 96-well plate at 20000 cells/well;
2. In RPMI1640, 10% fetal bovine serum (Gibco, 10099-141), placed in a 5% CO2 incubator at 37° C. overnight (the cells were washed three times by using a serum-free RPMI medium right before the test):
3. 50 μl of serum-free media containing the compounds at different concentrations were added to the cells and incubated for 15 minutes;
4. 25 μL of 1.2 mM AMP was added for incubation at 37° C. for 2 hours, 25 μL of supernatant was then collected from the cells and mix with 25 μL of 100 μM ATP, and then the concentration of AMP in the samples was determined by CTG (Promega, #G7573);
5. Then, a reduction ratio of the substrate AMP level in the cell culture supernatant collected after the reaction was quantitatively determined to evaluate the inhibitory effects of the examples of the present invention and the positive compounds against the CD73 enzymatic activity on the cell surface;
6. Finally, the concentration of the compound leading to half maximal inhibition of enzymatic activity (IC50) was determined using a four-parameter non-linear logistic model curve fit in Graphpad Prism.

Consider `O=P(O)(O)CP(=O)(O)OC[C@H]1O[C@@H](n2ncc3c(N[C@@H]4CCc5cc(F)ccc54)cc(Cl)nc32)[C@H](O)[C@@H]1O` [Example 16, (((((2R,3S,4R,5R)-5-(6-chloro-4-(((R)-5-fluoro-2,3-dihydro-1H-inden-1-yl)amino)-1H-pyrazolo[3,4-b]pyridin-1-yl)-3,4-dihydroxytetrahydrofuran-2-yl)methoxy)(hydroxy)phosphoryl)methyl)phosphonic acid], for which the IC50 amounted to 0.34 nM at CD73 and 0.176 nM in experiment [1].
Regarding `O=P(O)(O)CP(=O)(O)OC[C@H]1C[C@@H](c2ccc3c(N[C@H]4CCc5cc(F)ccc54)nc(Cl)nn23)[C@H](O)[C@@H]1O` [Example 27, (((((1R,2R,3S,4S)-4-(2-chloro-4-(((S)-5-fluoro-2,3-dihydro-1H-inden-1-yl)amino)pyrrolo[2,1-f][1,2,4]triazin-7-yl)-2,3-dihydroxycyclopentyl)methoxy)(hydroxy)phosphoryl)methyl)phosphonic acid], the IC50 against CD73 is 82.6 nM; in experiment [1], 2.54 nM.
For `C[C@@H](Nc1nc(Cl)nc2c1cnn2[C@@H]1O[C@H](COP(=O)(O)CP(=O)(O)O)[C@@H](O)[C@H]1O)c1ccc(S(F)(F)(F)(F)F)cc1F` [Example 3, (((((2R,3S,4R,5R)-5-(6-chloro-4-(((R)-1-(2-fluoro-4-(pentafluoro-λ^6-sulfanyl)phenyl)ethyl)amino)-1H-pyrazolo[3,4-d]pyrimidin-1-yl)-3,4-dihydroxytetrahydrofuran-2-yl)methoxy)(hydroxy)phosphoryl)methyl)phosphonic acid], the IC50 on CD73 was 1.6 nM; in experiment [1], 0.722 nM.
Consider `O=P(O)(O)CP(=O)(O)OC[C@H]1O[C@@H](n2ncc3c(N[C@H]4CCc5ccccc54)cc(Cl)nc32)[C@H](O)[C@@H]1O` [Example 12, (((((2R,3S,4R,5R)-5-(6-chloro-4-(((S)-2,3-dihydro-1H-inden-1-yl)amino)-1H-pyrazolo[3,4-b]pyridin-1-yl)-3,4-dihydroxytetrahydrofuran-2-yl)methoxy)(hydroxy)phosphoryl)methyl)phosphonic acid], for which the IC50 (on CD73; in experiment [1]) was 0.26 nM throughout.
Regarding `O=P(O)(O)CP(=O)(O)OC[C@H]1O[C@@H](n2ncc3c(N[C@@H]4CCc5cc(C(F)(F)F)ccc54)cc(Cl)nc32)[C@H](O)[C@@H]1O` [Example 19, (((((2R,3S,4R,5R)-5-(6-chloro-4-(((R)-5-(trifluoromethyl)-2,3-dihydro-1H-inden-1-yl)amino)-1H-pyrazolo[3,4-b]pyridin-1-yl)-3,4-dihydroxytetrahydrofuran-2-yl)methoxy)(hydroxy)phosphoryl)methyl)phosphonic acid], the IC50 at CD73 was found to be 11.8 nM; in experiment [1], 0.54 nM.
Turning to `O=P(O)(O)CP(=O)(O)OC[C@H]1C[C@@H](c2ccc3c(N[C@H]4CCc5ccc(C(F)(F)F)cc54)nc(Cl)nn23)[C@H](O)[C@@H]1O` [Example 35, (((((1R,2R,3S,4S)-4-(2-chloro-4-(((S)-6-(trifluoromethyl)-2,3-dihydro-1H-inden-1-yl)amino)pyrrolo[2,1-f][1,2,4]triazin-7-yl)-2,3-dihydroxycyclopentyl)methoxy)(hydroxy)phosphoryl)methyl)phosphonic acid], the IC50 against CD73 worked out at 354 nM; in experiment [1], 5.73 nM.
In the case of `O=P(O)(O)CP(=O)(O)OC[C@H]1C[C@@H](c2ccc3c(N[C@@H]4CCc5cc(F)cc(F)c54)nc(Cl)nn23)[C@H](O)[C@@H]1O` [Example 34, (((((1R,2R,3S,4S)-4-(2-chloro-4-(((R)-5,7-difluoro-2,3-dihydro-1H-inden-1-yl)amino)pyrrolo[2,1-f][1,2,4]triazin-7-yl)-2,3-dihydroxycyclopentyl)methoxy)(hydroxy)phosphoryl)methyl)phosphonic acid], the IC50 was 1.01 nM on CD73 and 0.22 nM in experiment [1].
The matching figures for `O=P(O)(O)CP(=O)(O)OC[C@H]1C[C@@H](c2ccc3c(N[C@@H]4CCc5ccc(C(F)(F)F)cc54)nc(Cl)nn23)[C@H](O)[C@@H]1O` [Example 36, (((((1R,2R,3S,4S)-4-(2-chloro-4-(((R)-6-(trifluoromethyl)-2,3-dihydro-1H-inden-1-yl)amino)pyrrolo[2,1-f][1,2,4]triazin-7-yl)-2,3-dihydroxycyclopentyl)methoxy)(hydroxy)phosphoryl)methyl)phosphonic acid]: 21.7 nM and 0.63 nM.
As to `C[C@@H](Nc1nc(Cl)nc2c1cnn2[C@@H]1O[C@H](COP(=O)(O)CP(=O)(O)O)[C@@H](O)[C@H]1O)c1ccc(S(F)(F)(F)(F)F)cc1` [Example 1, (((((2R,3S,4R,5R)-5-(6-chloro-4-(((R)-1-(4-(pentafluoro-λ^6-sulfanyl)phenyl)ethyl)amino)-1H-pyrazolo[3,4-d]pyrimidin-1-yl)-3,4-dihydroxytetrahydrofuran-2-yl)methoxy)(hydroxy)phosphoryl)methyl)phosphonic acid], the IC50 against CD73 stood at 6.8 nM; in experiment [1] it was 0.373 nM.
As to `O=P(O)(O)CP(=O)(O)OC[C@H]1O[C@@H](n2ncc3c(N[C@@H]4CCc5cc(F)c(F)cc54)cc(Cl)nc32)[C@H](O)[C@@H]1O` [Example 22, (((((2R,3S,4R,5R)-5-(6-chloro-4-(((R)-5,6-difluoro-2,3-dihydro-1H-inden-1-yl)amino)-1H-pyrazolo[3,4-b]pyridin-1-yl)-3,4-dihydroxytetrahydrofuran-2-yl)methoxy)(hydroxy)phosphoryl)methyl)phosphonic acid], the results for the IC50 (against CD73; in experiment [1]) were 0.26 nM and 0.151 nM, respectively.
The matching figures for `C[C@H](Nc1nc(Cl)nc2c1cnn2[C@@H]1O[C@H](COP(=O)(O)CP(=O)(O)O)[C@@H](O)[C@H]1O)c1ccc(S(F)(F)(F)(F)F)cc1F` [Example 4, (((((2R,3S,4R,5R)-5-(6-chloro-4-(((S)-1-(2-fluoro-4-(pentafluoro-λ^6-sulfanyl)phenyl)ethyl)amino)-1H-pyrazolo[3,4-d]pyrimidin-1-yl)-3,4-dihydroxytetrahydrofuran-2-yl)methoxy)(hydroxy)phosphoryl)methyl)phosphonic acid]: 23.4 nM and 0.9 nM.
For `C[C@H](Nc1cc(Cl)nc2c1cnn2[C@@H]1O[C@H](COP(=O)(O)CP(=O)(O)O)[C@@H](O)[C@H]1O)c1ccc(S(F)(F)(F)(F)F)cc1` [Example 6, (((((2R,3S,4R,5R)-5-(6-chloro-4-(((S)-1-(4-(pentafluoro-λ^6-sulfanyl)phenyl)ethyl)amino)-1H-pyrazolo[3,4-b]pyridin-1-yl)-3,4-dihydroxytetrahydrofuran-2-yl)methoxy)(hydroxy)phosphoryl)methyl) phosphonic acid], the IC50 at CD73 amounted to 2.4 nM; in experiment [1] it was 0.302 nM.
